The values that follow come from PMC6025358 (Marine Drugs, 2018).

This assay deals with rat α3β4 nAChR (Rattus norvegicus, UniProt P04757+P12392). Put plainly: cell-based. To be noted: for inhibition at 0.1 µM / inhibition at 1 µM: read-out: Inhibition of ACh-evoked α3β4 nAChR-mediated current.

In general, inhibition refers to the change of the read-out against control, counted positive when it falls. The IC50 is the concentration needed to halve the response being measured. Read a low IC50 as higher potency.

rat α3β4 nAChR, sequence (P04757 26-499 limits assumed): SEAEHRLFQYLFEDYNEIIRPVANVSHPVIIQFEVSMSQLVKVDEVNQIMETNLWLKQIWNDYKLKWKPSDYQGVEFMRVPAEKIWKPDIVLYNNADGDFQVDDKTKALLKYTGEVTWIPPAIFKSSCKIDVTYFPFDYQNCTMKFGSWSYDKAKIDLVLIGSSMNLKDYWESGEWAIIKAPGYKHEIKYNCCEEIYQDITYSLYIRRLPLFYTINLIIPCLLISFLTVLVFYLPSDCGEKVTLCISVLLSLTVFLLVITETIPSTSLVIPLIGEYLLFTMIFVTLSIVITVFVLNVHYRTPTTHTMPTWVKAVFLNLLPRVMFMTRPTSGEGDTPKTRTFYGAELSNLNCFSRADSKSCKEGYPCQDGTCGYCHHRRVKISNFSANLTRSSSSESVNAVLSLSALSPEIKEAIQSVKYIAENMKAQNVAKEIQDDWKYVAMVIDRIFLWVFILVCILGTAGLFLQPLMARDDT
rat α3β4 nAChR, sequence (P12392 21-495 limits assumed): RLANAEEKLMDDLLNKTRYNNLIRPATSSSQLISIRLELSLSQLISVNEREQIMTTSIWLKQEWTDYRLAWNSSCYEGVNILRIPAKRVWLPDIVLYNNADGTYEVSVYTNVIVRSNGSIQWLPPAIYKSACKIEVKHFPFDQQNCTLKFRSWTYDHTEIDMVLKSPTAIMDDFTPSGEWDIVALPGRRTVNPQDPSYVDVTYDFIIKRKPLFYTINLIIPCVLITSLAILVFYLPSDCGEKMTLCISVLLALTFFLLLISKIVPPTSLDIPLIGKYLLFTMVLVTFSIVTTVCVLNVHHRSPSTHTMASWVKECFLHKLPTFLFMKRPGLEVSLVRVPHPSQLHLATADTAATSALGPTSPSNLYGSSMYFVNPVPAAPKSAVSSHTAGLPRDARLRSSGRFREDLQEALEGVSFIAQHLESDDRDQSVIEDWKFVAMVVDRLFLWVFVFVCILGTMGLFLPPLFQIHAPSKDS

Consider `CC[C@H](C)[C@@H]1NC(=O)[C@@H]2CCCN2C(=O)[C@H](CO)NC(=O)[C@H](CCSC)NC(=O)[C@H](C)NC(=O)[C@H](CO)NC(=O)[C@@H]2CSSC[C@H](NC(=O)CN)C(=O)N[C@@H](CSSC[C@@H](C(N)=O)NC1=O)C(=O)N[C@@H](CO)C(=O)N[C@@H](Cc1c[nH]cn1)C(=O)N1CCC[C@H]1C(=O)N[C@@H](C(C)C)C(=O)N2` [TxID], for which the inhibition at 0.1 µM is approximately 80% and the inhibition at 1 µM was approximately 100%.
As to `CC[C@H](C)[C@@H]1NC(=O)[C@@H]2CCCN2C(=O)[C@H](CO)NC(=O)[C@H](CC[S+](C)[O-])NC(=O)[C@H](C)NC(=O)[C@H](CO)NC(=O)[C@@H]2CSSC[C@H](NC(=O)CN)C(=O)N[C@@H](CSSC[C@@H](C(N)=O)NC1=O)C(=O)N[C@@H](CO)C(=O)N[C@@H](Cc1c[nH]cn1)C(=O)N1CCC[C@H]1C(=O)N[C@@H](C(C)C)C(=O)N2` (some centres unmarked) [[MO]TxID], half-maximal inhibition (IC50) was put at 245 nM, the inhibition at 0.1 µM amounted to 25% and the inhibition at 1 µM is 72%.
